The values below come from ChEMBL document CHEMBL4431396, “Novel Autotaxin Inhibitors for the Treatment of Osteoarthritis Pain: Lead Optimization via Structure-Based Drug Design” (ACS Med Chem Lett, 2016).

Holding throughout (type): ADME, organism-based
Data set [1] can be described thus: Half life in rat at 1 mg/kg, iv. As to conditions: in vivo.
Data set [2] can be described thus: Volume of distribution at steady state in rat at 1 mg/kg, iv. As to conditions: in vivo, read-out: Vdss.
Data set [3] is described as follows: Cmax in rat at 10 mg/kg, po administered as single dose. Further details: dose 10 mg/kg, route oral. As to conditions: in vivo.
Data set [4] in a line: AUC in rat at 10 mg/kg, po administered as single dose. As to conditions: in vivo.
A short description of data set [5]: Oral bioavailability in rat at 10 mg/kg administered as single dose. As to conditions: in vivo.
In another data set the test system is Rattus norvegicus. Nature of the data set: Time duration for plasma concentration stays above in vitro IC80 level in rat at 10 mg/kg, po administered as single dose. As to conditions: in vivo.

Broadly, the half-life is the time needed for the level to fall by half in the phase considered. Low readings indicate fast loss, high ones slow loss. One may read the Cmax as the peak of the concentration-time curve. The AUC is the area under the concentration-time curve, a measure of exposure. Usually bioavailability stands for the share of a dose that reaches the circulation, judged against a reference dose that is usually intravenous.

In the case of `O=C(COCCc1cnn[nH]1)N1Cc2cnc(NC3Cc4ccccc4C3)nc2C1`, the half-life in data set [1] was 1.14 h. Besides, the Vd in data set [2] came to 1.4 L/kg. For the same molecule, in data set [3], the Cmax is 660 nM. In data set [4], this molecule displayed an AUC of 3.44 µM·h. The bioavailability in data set [5] was found to be 23%. For the same molecule, the Time in the data set on Rattus norvegicus was above 12 h.
